Earlier results as cited in US20060115514A1, “Chelating and binding chemicals to a medical implant, medical device formed, and therapeutic applications” (priority 2004, published 2006).

Tests used:
[1] = test system: neointimal formation after balloon injury; conditions: after balloon injury in rats
restenosis = conditions: oral administration

Compound	neointimal formation [1]	incidence of adverse events (restenosis)
N=C(N)c1ccc2cc(OC(=O)c3ccc(N=C(N)N)cc3)ccc2c1 [FUT-175]	inhibits	
CO[C@H]1C[C@@H]2CC[C@@H](C)[C@@](O)(O2)C(=O)C(=O)N2CCCC[C@H]2C(=O)O[C@H]([C@H](C)C[C@@H]2CC[C@@H](O)[C@H](OC)C2)CC(=O)[C@H](C)/C=C(\C)[C@@H](O)[C@@H](OC)C(=O)[C@H](C)C[C@H](C)/C=C/C=C/C=C/1C [sirolimus]		higher incidence of adverse events
